Reference: ChEMBL document CHEMBL1122223, “New developments in Ca2+ channel antagonists” (J Med Chem, 1983)

What was measured:
Canis familiaris [1] = species: Canis familiaris; assay: Antagonistic activity against norepinephrine induced contraction in canine coronary; format: functional, Canis lupus familiaris
Oryctolagus cuniculus [2] = species: Oryctolagus cuniculus; assay: Inhibition of [Ca2+] uptake in rabbit aorta, K+.; format: functional; settings: read-out: ID50 (the source's name)
Canis familiaris [3] = species: Canis familiaris; assay: Antagonistic activity against K+ induced responses in canine coronary.; format: functional, Canis lupus familiaris
Oryctolagus cuniculus [4] = species: Oryctolagus cuniculus; assay: Inhibition of contraction in rabbit aorta, K+.; format: functional; settings: read-out: ID50 (the source's name)
Cavia porcellus [5] = species: Cavia porcellus; assay: [Ca2+] antagonistic activity on contraction in guinea pig atria.; format: functional; settings: read-out: ID50 (the source's name)
Rattus norvegicus [6] = species: Rattus norvegicus; assay: Effective concentration for negative inotropic effect; format: functional, organism-based
Cavia porcellus [7] = species: Cavia porcellus; assay: [Ca2+] antagonistic activity on [Ca2+] current in guinea pig single ventricular cells; format: functional; settings: read-out: ID50 (the source's name)
PC-12 = assay: Ability to block depolarization induced 45Ca uptake into pheochromocytoma PC12 cells; format: functional, cell-based; settings: Rattus norvegicus
[8] = Dissociation constant for high affinity binding sites in intact cultured cardiac cells
[9] = Dissociation constant for binding to isolated membranes from clonal cell line
[10] = Dissociation constant for low affinity binding sites in intact cultured cardiac cells
Rattus norvegicus [11] = species: Rattus norvegicus; assay: Inhibition of [Ca2+] uptake in rat aorta, K+.; settings: read-out: ID50
Rattus norvegicus [12] = species: Rattus norvegicus; assay: Inhibition of contraction in rat aorta, K+.; settings: read-out: ID50
Felis catus [13] = species: Felis catus; assay: [Ca2+] antagonistic activity on [Ca2+] current in cat ventricular trabeculae; format: functional
Felis catus [14] = species: Felis catus; assay: [Ca2+] antagonistic activity on [Ca2+] current in cat papillary.; format: functional, Papillary muscle
Cavia porcellus [15] = species: Cavia porcellus; assay: Antagonistic activity against K+ induced responses in guinea pig ileum.; format: functional; settings: read-out: ID50 (the source's name)
Cavia porcellus [16] = species: Cavia porcellus; assay: Antagonistic activity against ACh in guinea pig ileum.; format: functional; settings: read-out: ID50 (the source's name)
Oryctolagus cuniculus [17] = species: Oryctolagus cuniculus; assay: Inhibition of [Ca2+] uptake in rabbit pulmonary artery, K+.; format: functional; settings: read-out: ID50 (the source's name)
Canis familiaris [18] = species: Canis familiaris; assay: Antagonistic activity against K+ induced responses in canine trachea.; format: functional; settings: Canis lupus familiaris, read-out: ID50 (the source's name)
Oryctolagus cuniculus [19] = species: Oryctolagus cuniculus; assay: Antagonistic activity against K+ induced responses in rabbit aorta; format: functional; settings: read-out: ID50 (the source's name)
Oryctolagus cuniculus [20] = species: Oryctolagus cuniculus; assay: Inhibition of contraction in rabbit pulmonary artery, K+.; format: functional; settings: read-out: ID50 (the source's name)
Oryctolagus cuniculus [21] = species: Oryctolagus cuniculus; assay: Antagonistic activity against norepinephrine (NE) induced responses in rabbit aorta; format: functional; settings: read-out: ID50 (the source's name)
Canis familiaris [22] = species: Canis familiaris; assay: Antagonistic activity against ACh induced responses in canine trachea; format: functional; settings: Canis lupus familiaris, read-out: ID50 (the source's name)
Oryctolagus cuniculus [23] = species: Oryctolagus cuniculus; assay: Antagonistic activity against 5-HT induced responses in rabbit basilar; format: functional
Oryctolagus cuniculus [24] = species: Oryctolagus cuniculus; assay: Antagonistic activity against 5-HT in rabbit saphenous; format: functional, Saphenous vein
Oryctolagus cuniculus [25] = species: Oryctolagus cuniculus; assay: Antagonistic activity against K+ induced responses in rabbit basilar.; format: functional
Oryctolagus cuniculus [26] = species: Oryctolagus cuniculus; assay: Antagonistic activity against K+ induced responses in rabbit saphenous; format: functional, Saphenous vein

## COc1ccc(CCN(C)CCCC(C#N)(c2cc(OC)c(OC)c(OC)c2)C(C)C)cc1OC (stereo not given) [GALLOPAMIL]
Canis familiaris [1]
  ID50: 0.5 µM
Oryctolagus cuniculus [2]
  IC50: 0.15 µM
Canis familiaris [3]
  ID50: 0.2 µM
Oryctolagus cuniculus [4]
  IC50: 0.2 µM
Cavia porcellus [5]
  IC50: < 1 µM

## COC(=O)C1=C(C)NC(C)=C(C(=O)OCCN(C)Cc2ccccc2)C1c1cccc([N+](=O)[O-])c1 (stereo not given) [NICARDIPINE]
Oryctolagus cuniculus [2]
  IC50: 0.001 µM
Oryctolagus cuniculus [4]
  IC50: 0.0019 µM

## CCOC(=O)C1=C(C)NC(C)=C(C(=O)OC)C1c1cccc([N+](=O)[O-])c1 (stereo not given) [NITRENDIPINE]
Rattus norvegicus [6]
  EC50: 0.028 µM
Cavia porcellus [7]
  IC50: 0.2 µM
PC-12
  IC50: 0.01 µM
[8]
  Kd: 0.00026 µM
[9]
  Kd: 0.01 µM
[10]
  Kd: 0.016 µM

## Fc1ccc(C(c2ccc(F)cc2)N2CCN(C/C=C/c3ccccc3)CC2)cc1 [FLUNARIZINE]
Rattus norvegicus [11]
  IC50: 0.18 µM
Rattus norvegicus [12]
  IC50: 0.22 µM

## COC(=O)C1=C(C)NC(C)=C(C(=O)OC)C1c1ccccc1[N+](=O)[O-] [NIFEDIPINE]
Cavia porcellus [5]
  IC50: 1 µM
Felis catus [13]
  ID50: 0.6 µM
Felis catus [14]
  ID50: 0.6 µM
Cavia porcellus [15]
  IC50: 0.003 µM
Cavia porcellus [16]
  IC50: 0.005 µM

## COc1ccc(CCN(C)CCCC(C#N)(c2ccc(OC)c(OC)c2)C(C)C)cc1OC (stereo not given) [VERAPAMIL]
Oryctolagus cuniculus [2]
  IC50: 0.0068 µM
Oryctolagus cuniculus [17]
  IC50: 0.3 µM
Canis familiaris [18]
  IC50: < 1000 µM
Oryctolagus cuniculus [4]
  IC50: 0.17 µM
Felis catus [13]
  ID50: <10 µM
Oryctolagus cuniculus [19]
  IC50: 0.03 µM
Oryctolagus cuniculus [20]
  IC50: 0.4 µM
Oryctolagus cuniculus [21]
  IC50: 100 µM
Canis familiaris [22]
  IC50: > 1000 µM

## COc1ccc([C@@H]2Sc3ccccc3N(CCN(C)C)C(=O)[C@@H]2OC(C)=O)cc1 [DILTIAZEM]
Oryctolagus cuniculus [2]
  IC50: 0.3 µM
Oryctolagus cuniculus [4]
  IC50: 0.5 µM

## COCCOC(=O)C1=C(C)NC(C)=C(C(=O)OC(C)C)C1c1cccc([N+](=O)[O-])c1 (stereo not given) [NIMODIPINE]
Oryctolagus cuniculus [23]
  ID50: 0.0007 µM
Oryctolagus cuniculus [24]
  ID50: >0.0001 M
Oryctolagus cuniculus [25]
  ID50: 0.0002 µM
Oryctolagus cuniculus [26]
  ID50: 0.0003 µM
